Experimental data taken from ChEMBL document CHEMBL4680315, “Synthesis and anticancer potential of novel 5,6-oxygenated and/or halogenated steroidal d-homo lactones” (Bioorg Med Chem, 2021).
Activity calls are given as the source filed them. The rule behind the calls is not given here.

Assays:
[1] = test system: MCF7; assay: Cytotoxicity activity against human MCF7 assessed as inhibition of cell growth measured after 72 hrs by MTT assay; assay type: functional, cell-based; conditions: MCF7, 72 h
[2] = test system: MDA-MB-231; assay: Cytotoxicity against human MDA-MB-231 cells assessed as cell growth inhibition measured after 72 hrs by MTT assay; assay type: functional, cell-based; conditions: MDA-MB-231, 72 h
[3] = test system: PC-3; assay: Cytotoxicity against human PC-3 cells assessed as cell growth inhibition measured after 72 hrs by MTT assay; assay type: functional, cell-based; conditions: PC-3, 72 h
[4] = test system: HeLa; assay: Cytotoxicity against human Hela cells assessed as cell growth inhibition measured after 72 hrs by MTT assay; assay type: functional, cell-based
[5] = test system: HT-29; assay: Cytotoxicity against human HT-29 cells assessed as cell growth inhibition measured after 72 hrs by MTT assay; assay type: functional, cell-based; conditions: HT-29, 72 h
[6] = test system: A549; assay: Cytotoxicity against human A549 cells assessed as cell growth inhibition measured after 72 hrs by MTT assay; assay type: functional, cell-based; conditions: A549, 72 h
[7] = test system: MRC5; assay: Cytotoxicity against human MRC5 cells assessed as cell growth inhibition measured after 72 hrs by MTT assay; assay type: cell-based; conditions: MRC5, 72 h
[8] = test system: MDA-MB-231; assay: Induction of apoptosis in human MDA-MB-231 cells assessed as late apoptotic cells by measuring red colour signal measured after 72 hrs by fluorescent double-staining method; assay type: functional, cell-based
[9] = biological target: T1, Estrogen receptor (Homo sapiens) (UniProt P03372); assay: Binding affinity to EYFP-tagged human ERalpha-LBD expressed in Saccharomyces cerevisiae FY250 strain assessed as fluorescence intensity at 10 uM incubated for 14 to 16 hrs by fluorescence spectroscopy based fluorescence microscopy relative to control; conditions: time 14-16 hrs
T1 sequence (whole entry): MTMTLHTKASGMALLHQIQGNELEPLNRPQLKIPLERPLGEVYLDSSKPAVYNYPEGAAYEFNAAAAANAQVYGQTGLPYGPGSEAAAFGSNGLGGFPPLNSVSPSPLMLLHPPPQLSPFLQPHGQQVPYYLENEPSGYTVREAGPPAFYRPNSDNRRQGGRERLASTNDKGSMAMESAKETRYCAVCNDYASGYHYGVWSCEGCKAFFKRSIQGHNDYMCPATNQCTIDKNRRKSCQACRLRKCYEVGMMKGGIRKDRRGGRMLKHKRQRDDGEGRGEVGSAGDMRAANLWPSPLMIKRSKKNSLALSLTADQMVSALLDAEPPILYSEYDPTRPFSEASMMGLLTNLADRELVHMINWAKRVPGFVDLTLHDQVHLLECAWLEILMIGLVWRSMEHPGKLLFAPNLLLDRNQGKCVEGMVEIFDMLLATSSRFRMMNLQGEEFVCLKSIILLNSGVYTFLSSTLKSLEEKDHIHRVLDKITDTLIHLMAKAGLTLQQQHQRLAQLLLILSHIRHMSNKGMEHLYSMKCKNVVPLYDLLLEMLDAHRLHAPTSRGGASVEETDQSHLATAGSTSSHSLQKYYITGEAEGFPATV

[10] = test system: HT-29; assay: Induction of apoptosis in human HT-29 cells assessed as late apoptotic cells by measuring red colour signal measured after 72 hrs by fluorescent double-staining method; assay type: functional, cell-based
[11] = test system: A549; assay: Induction of apoptosis in human A549 cells assessed as late apoptotic cells by measuring red colour signal measured after 72 hrs by fluorescent double-staining method; assay type: functional, cell-based
[12] = biological target: Estrogen receptor beta (Homo sapiens) (UniProt Q92731); assay: Binding affinity to EYFP-tagged human ERbeta-LBD expressed in Saccharomyces cerevisiae FY250 strain assessed as fluorescence intensity at 10 uM incubated for 14 to 16 hrs by fluorescence spectroscopy based fluorescence microscopy relative to control; conditions: time 14-16 hrs
Estrogen receptor beta (Homo sapiens), sequence (Q92731 whole entry, the tested form may be a part): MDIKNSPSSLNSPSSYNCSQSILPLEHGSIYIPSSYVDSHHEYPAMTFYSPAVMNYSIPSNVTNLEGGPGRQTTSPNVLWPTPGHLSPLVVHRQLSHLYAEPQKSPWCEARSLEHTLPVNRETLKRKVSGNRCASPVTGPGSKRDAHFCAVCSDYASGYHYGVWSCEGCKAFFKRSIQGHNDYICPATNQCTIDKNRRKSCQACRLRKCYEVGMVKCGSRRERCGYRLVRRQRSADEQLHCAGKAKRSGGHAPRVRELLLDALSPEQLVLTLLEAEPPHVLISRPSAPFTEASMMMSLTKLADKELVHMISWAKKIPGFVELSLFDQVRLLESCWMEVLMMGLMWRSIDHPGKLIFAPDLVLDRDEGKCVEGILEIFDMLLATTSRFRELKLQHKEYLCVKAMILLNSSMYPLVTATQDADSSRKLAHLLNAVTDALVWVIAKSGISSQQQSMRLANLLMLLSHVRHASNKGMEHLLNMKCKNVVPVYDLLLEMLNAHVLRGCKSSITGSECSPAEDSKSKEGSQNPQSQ

| SMILES | IC50 [1] | IC50 [2] | IC50 [3] | IC50 [4] | IC50 [5] | IC50 [6] | IC50 [7] | Activity [8] | Activity [9] | Activity [10] | Activity [11] | Activity [12] |
| --- | --- | --- | --- | --- | --- | --- | --- | --- | --- | --- | --- | --- |
| CC(=O)O[C@H]1CC[C@]2(C)[C@H]3CC[C@]4(C)COC(=O)C[C@H]4[C@@H]3C[C@@H](O)[C@@]2(Cl)C1 | > 100 µM | > 100 µM | > 100 µM | 36.9 µM | 72.3 µM | > 100 µM | > 100 µM |  |  |  |  |  |
| CC(=O)O[C@H]1CC[C@]2(C)[C@H]3CC[C@]4(C)COC(=O)C[C@H]4[C@@H]3C[C@H]3O[C@]32C1 | 100 µM | 33.9 µM | > 100 µM | 16.9 µM | 14 µM | > 100 µM | > 100 µM | Active | Active |  |  |  |
| CC(=O)O[C@H]1CC[C@]2(C)[C@H]3CC[C@]4(C)COC(=O)C[C@H]4[C@@H]3C[C@H](Br)[C@]2(O)C1 | 12.9 µM | > 100 µM | > 100 µM | > 100 µM | > 100 µM | > 100 µM | > 100 µM |  |  |  |  |  |
| CC(=O)O[C@H]1CC[C@]2(C)[C@H]3CC[C@]4(C)COC(=O)C[C@H]4[C@@H]3C[C@@H]3O[C@@]32C1 | > 100 µM | 6.16 µM | > 100 µM | 99.2 µM | > 100 µM | > 100 µM | > 100 µM | Active |  |  |  |  |
| CC(=O)O[C@H]1CC[C@]2(C)[C@H]3CC[C@]4(C)COC(=O)C[C@H]4[C@@H]3C[C@@H](OC(C)=O)[C@@]2(O)C1 | 12.7 µM | 31 µM | 6.6 µM | 8.66 µM | > 100 µM | > 100 µM | > 100 µM | Active |  |  |  |  |
| COc1cccc2c1C(=O)c1c(O)c3c(c(O)c1C2=O)C[C@@](O)(C(=O)CO)C[C@@H]3O[C@H]1C[C@H](N)[C@H](O)[C@H](C)O1 [DOXORUBICIN] |  |  | 84.2 µM |  |  | > 100 µM | 0.24 µM |  |  |  |  |  |
| CC(=O)O[C@H]1CC[C@]2(C)[C@H]3CC[C@]4(C)COC(=O)C[C@H]4[C@@H]3CC(=O)[C@@]2(O)C1 | 81.8 µM | 23.7 µM | > 100 µM | > 100 µM | > 100 µM | > 100 µM | > 100 µM | Active |  |  |  |  |
| CC(=O)O[C@H]1CC[C@]2(C)[C@H]3CC[C@]4(C)COC(=O)C[C@H]4[C@@H]3C[C@@H](O)[C@@]2(Br)C1 | 86.6 µM | 26.5 µM | > 100 µM | 13.6 µM | > 100 µM | 26.1 µM | > 100 µM | Active |  |  |  |  |
| C[C@]12CC[C@H]3[C@@H](C[C@@H](O)[C@@]4(O)C[C@@H](O)CC[C@]34C)[C@@H]1CC(=O)OC2 | 8.62 µM | 13.8 µM | > 100 µM | 93.6 µM | 9.34 µM | 0.99 µM | > 100 µM | Active |  | Active | Active |  |
| C[C@]12CC[C@H]3[C@@H](CC(=O)[C@@]4(O)CC(=O)CC[C@]34C)[C@@H]1CC(=O)OC2 | > 100 µM | 4.81 µM | > 100 µM | 40.1 µM | 42.2 µM | > 100 µM | > 100 µM | Active | Active |  |  |  |
| CC(=O)O[C@H]1CC[C@]2(C)[C@H]3CC[C@]4(C)COC(=O)C[C@H]4[C@@H]3C[C@@H](O)[C@@]2(F)C1 | 42.9 µM | 9.1 µM | > 100 µM | > 100 µM | 21.2 µM | > 100 µM | > 100 µM | Active |  |  |  | Active |
| C[C@]12CCC(=O)C(O)=C1CC[C@@H]1[C@@H]2CC[C@]2(C)C(=O)CC[C@@H]12 [FORMESTANE] | > 100 µM |  | 26.4 µM | 3.36 µM | > 100 µM | 38.6 µM | 0.1 µM |  |  |  |  |  |
| CC(=O)O[C@H]1CC[C@]2(C)[C@H]3CC[C@]4(C)COC(=O)C[C@H]4[C@@H]3C[C@@H](O)[C@@]2(O)C1 | > 100 µM | > 100 µM | > 100 µM | > 100 µM | 86.6 µM | > 100 µM | > 100 µM |  |  |  |  | Active |
| CO[C@@H]1C[C@H]2[C@@H]3CC(=O)OC[C@@]3(C)CC[C@@H]2[C@@]2(C)CC[C@H](O)C[C@]12O | 73.6 µM | 3.38 µM | 10.8 µM | 27 µM | > 100 µM | > 100 µM | > 100 µM | Active |  |  |  |  |
| C[C@]12CC[C@H]3[C@@H](CC(=O)[C@@]4(O)C[C@@H](O)CC[C@]34C)[C@@H]1CC(=O)OC2 | > 100 µM | 6.16 µM | > 100 µM | 33.6 µM | > 100 µM | > 100 µM | > 100 µM | Active |  |  |  |  |
| CC(=O)O[C@H]1CC[C@]2(C)[C@H]3CC[C@]4(C)COC(=O)C[C@H]4[C@@H]3C[C@@H](Cl)[C@@]2(Cl)C1 | > 100 µM | 23.7 µM | > 100 µM | 25.9 µM | 10.8 µM | 15.5 µM | > 100 µM | Active |  | Active | Active |  |
| CO[C@]12C[C@@H](O)CC[C@]1(C)[C@H]1CC[C@]3(C)COC(=O)C[C@H]3[C@@H]1C[C@H]2O | > 100 µM | 4.4 µM | 24.8 µM | 7.06 µM | > 100 µM | > 100 µM | > 100 µM | Active |  |  |  |  |
| CC(=O)O[C@H]1CC[C@]2(C)[C@H]3CC[C@]4(C)COC(=O)C[C@H]4[C@@H]3C[C@@H](Br)[C@@]2(Br)C1 | 34.9 µM | 13.3 µM | > 100 µM | 9.46 µM | 16.2 µM | 36.9 µM | > 100 µM | Active | Active |  | Active |  |
